Values joined by “and” are separate entries in the source; they are usually repeats but may differ in a detail not shown here. Identical values can stand only once. Inconclusive results and toxic doses are left out.
System: BDF1 mice, L1210 terephthalanilide-resistant leukemia ip, survival T/C
Assay: NCI In Vivo Anticancer Drug Screen. Data for tumor model L1210 Leukemia resistant to A Terephthalanilide; NSC 38280 (intraperitoneal) in B6D2F1 (BDF1) mice
Settings: endpoint: mean survival time, higher = longer survival
Procedure: The antitumor activity of compounds was measured in mice bearing transplantable tumors. Survival or tumor size were measured and the results are expressed as the measurement made in the treated group (T) divided by the measurement made in the vehicle treated control group (C). The tumor model used in this assay is L1210 Leukemia resistant to A Terephthalanilide; NSC 38280 (intraperitoneal) in B6D2F1 (BDF1) mice

[1] = dose: 50.0 mg/kg/injection, schedule: Q01DX Z (ip), vehicle: saline
[2] = dose: 100.0 mg/kg/injection, schedule: Q01DX Z (ip), vehicle: saline
[3] = dose: 250.0 mg/kg/injection, schedule: Q01DX Z (ip), vehicle: saline
[4] = dose: 500.0 mg/kg/injection, schedule: Q01DX Z (ip), vehicle: saline
[5] = dose: 1000.0 mg/kg/injection, schedule: Q01DX Z (ip), vehicle: saline
[6] = dose: 25.0 mg/kg/injection, schedule: Q01DX Z (ip), vehicle: carboxymethylcellulose (CMC)
[7] = dose: 15.0 mg/kg/injection, schedule: Q01DX010 (ip), vehicle: saline
[8] = dose: 30.0 mg/kg/injection, schedule: Q01DX010 (ip), vehicle: saline
[9] = dose: 2.0 mg/kg/injection, schedule: Q01DX010 (ip), vehicle: saline
[10] = dose: 4.0 mg/kg/injection, schedule: Q01DX010 (ip), vehicle: saline
[11] = dose: 125.0 mg/kg/injection, schedule: Q01DX010 (ip), vehicle: saline
[12] = dose: 250.0 mg/kg/injection, schedule: Q01DX010 (ip), vehicle: saline
[13] = dose: 500.0 mg/kg/injection, schedule: Q01DX010 (ip), vehicle: saline
[14] = dose: 37.5 mg/kg/injection, schedule: Q01DX Z (ip), vehicle: carboxymethylcellulose (CMC)
[15] = dose: 62.5 mg/kg/injection, schedule: Q01DX010 (ip), vehicle: saline

O=c1cnn(C2OC(CO)C(O)C2O)c(=O)[nH]1 (stereo not drawn)
T/C [1]: 172 % of control | T/C [2]: 164 % of control | T/C (dose: 187.0 mg/kg/injection, schedule: Q01DX Z (ip), vehicle: saline): 181 % of control | T/C [3]: 224 % of control | T/C (dose: 375.0 mg/kg/injection, schedule: Q01DX Z (ip), vehicle: saline): 218 % of control | T/C [4]: 225 % of control | T/C (dose: 750.0 mg/kg/injection, schedule: Q01DX Z (ip), vehicle: saline): 222 % of control | T/C (dose: 800.0 mg/kg/injection, schedule: Q01DX010 (ip), vehicle: saline): 167 % of control | T/C [5]: 182 % of control | T/C (dose: 1600.0 mg/kg/injection, schedule: Q01DX010 (ip), vehicle: saline): 86 % of control

Nc1ncnc2[nH]ncc12
T/C (dose: 1.5 mg/kg/injection, schedule: Q01DX010 (ip), vehicle: saline): 103 % of control and 105 % of control | T/C (dose: 3.0 mg/kg/injection, schedule: Q01DX010 (ip), vehicle: saline): 103 % of control and 108 % of control | T/C (dose: 6.0 mg/kg/injection, schedule: Q01DX010 (ip), vehicle: saline): 107 % of control and 111 % of control | T/C (dose: 12.0 mg/kg/injection, schedule: Q01DX010 (ip), vehicle: saline): 102 % of control | T/C [6]: 90 % of control

C[C@@H]1C[C@@H]([C@H](O)CC2CC(=O)NC(=O)C2)C(=O)[C@@H](C)C1
T/C (dose: 1.25 mg/kg/injection, schedule: Q01DX Z (ip), vehicle: saline): 101 % of control | T/C (dose: 2.5 mg/kg/injection, schedule: Q01DX Z (ip), vehicle: saline): 107 % of control | T/C (dose: 5.0 mg/kg/injection, schedule: Q01DX010 (ip), vehicle: saline): 100 % of control and 105 % of control | T/C (dose: 5.0 mg/kg/injection, schedule: Q01DX Z (ip), vehicle: saline): 106 % of control | T/C (dose: 7.5 mg/kg/injection, schedule: Q01DX Z (ip), vehicle: saline): 107 % of control | T/C (dose: 10.0 mg/kg/injection, schedule: Q01DX010 (ip), vehicle: saline): 123 % of control and 113 % of control | T/C (dose: 20.0 mg/kg/injection, schedule: Q01DX010 (ip), vehicle: saline): 113 % of control and 117 % of control | T/C (dose: 40.0 mg/kg/injection, schedule: Q01DX010 (ip), vehicle: saline): 115 % of control

C[N+](C)(C)c1ncnc2nc[nH]c12
T/C [7]: 92 % of control | T/C [8]: 110 % of control | T/C (dose: 37.0 mg/kg/injection, schedule: Q01DX Z (ip), vehicle: saline): 102 % of control

Nc1nc2n[nH]nc2c(=O)[nH]1
T/C (dose: 6.25 mg/kg/injection, schedule: Q01DX Z (ip), vehicle: water): 106 % of control | T/C (dose: 12.5 mg/kg/injection, schedule: Q01DX Z (ip), vehicle: water): 113 % of control | T/C (dose: 400.0 mg/kg/injection, schedule: Q01DX Z (ip), vehicle: water): 95 % of control

O=c1[nH]c(=O)n(C2CC(O)C(CO)O2)cc1I (stereo not drawn)
T/C (dose: 500.0 mg/kg/injection, schedule: Q01DX Z (ip), vehicle: carboxymethylcellulose (CMC)): 151 % of control

O=C(Nc1ccc(NC2=NCCN2)cc1)c1ccc(C(=O)Nc2ccc(NC3=NCCN3)cc2)cc1
T/C [9]: 112 % of control and 113 % of control | T/C [10]: 115 % of control | T/C (dose: 16.0 mg/kg/injection, schedule: Q01DX010 (ip), vehicle: saline): 122 % of control and 115 % of control

CCOC(N)=O
T/C [1]: 107 % of control | T/C [2]: 93 % of control | T/C [11]: 100 % of control and 103 % of control | T/C (dose: 200.0 mg/kg/injection, schedule: Q01DX Z (ip), vehicle: saline): 106 % of control | T/C [12]: 100 % of control and 103 % of control | T/C (dose: 400.0 mg/kg/injection, schedule: Q01DX Z (ip), vehicle: saline): 106 % of control | T/C [13]: 99 % of control and 101 % of control | T/C [4]: 96 % of control | T/C [5]: 91 % of control

Clc1ncnc2nc[nH]c12
T/C (dose: 7.5 mg/kg/injection, schedule: Q01DX010 (ip), vehicle: saline): 94 % of control and 102 % of control | T/C [7]: 96 % of control and 105 % of control | T/C [8]: 120 % of control and 105 % of control | T/C [14]: 115 % of control | T/C (dose: 60.0 mg/kg/injection, schedule: Q01DX010 (ip), vehicle: saline): 123 % of control and 110 % of control | T/C (dose: 75.0 mg/kg/injection, schedule: Q01DX Z (ip), vehicle: carboxymethylcellulose (CMC)): 114 % of control | T/C (dose: 150.0 mg/kg/injection, schedule: Q01DX Z (ip), vehicle: carboxymethylcellulose (CMC)): 150 % of control

Nc1nc(=S)c2ncn(C3OC(CO)C(O)C3O)c2[nH]1 (stereo not drawn)
T/C (dose: 0.13 mg/kg/injection, schedule: Q01DX Z (ip), vehicle: carboxymethylcellulose (CMC)): 117 % of control | T/C (dose: 0.3 mg/kg/injection, schedule: Q01DX Z (ip), vehicle: carboxymethylcellulose (CMC)): 120 % of control | T/C (dose: 1.25 mg/kg/injection, schedule: Q01DX Z (ip), vehicle: carboxymethylcellulose (CMC)): 182 % of control | T/C [9]: 157 % of control and 179 % of control | T/C (dose: 2.5 mg/kg/injection, schedule: Q01DX Z (ip), vehicle: carboxymethylcellulose (CMC)): 151 % of control | T/C [10]: 86 % of control and 110 % of control | T/C (dose: 5.0 mg/kg/injection, schedule: Q01DX Z (ip), vehicle: carboxymethylcellulose (CMC)): 155 % of control | T/C (dose: 8.0 mg/kg/injection, schedule: Q01DX010 (ip), vehicle: saline): 98 % of control | T/C (dose: 15.0 mg/kg/injection, schedule: Q01DX Z (ip), vehicle: carboxymethylcellulose (CMC)): 111 % of control | T/C (dose: 20.0 mg/kg/injection, schedule: Q01DX Z (ip), vehicle: carboxymethylcellulose (CMC)): 102 % of control

O=C(Nc1ccc(C2=NCCN2)cc1)c1ccc(C(=O)Nc2ccc(C3=NCCN3)cc2)c(Cl)c1
T/C (dose: 2.0 mg/kg/injection, schedule: Q01DX010 (ip), vehicle: other): 98 % of control and 100 % of control | T/C (dose: 4.0 mg/kg/injection, schedule: Q01DX010 (ip), vehicle: other): 107 % of control and 110 % of control | T/C (dose: 8.0 mg/kg/injection, schedule: Q01DX010 (ip), vehicle: other): 107 % of control and 117 % of control | T/C (dose: 16.0 mg/kg/injection, schedule: Q01DX010 (ip), vehicle: other): 122 % of control and 107 % of control | T/C (dose: 32.0 mg/kg/injection, schedule: Q01DX010 (ip), vehicle: other): 120 % of control and 112 % of control

O=CCC(O)C(O)C(O)CO (stereo not drawn)
T/C [15]: 96 % of control and 104 % of control | T/C (dose: 62.5 mg/kg/injection, schedule: Q01DX Z (ip), vehicle: saline): 112 % of control | T/C [11]: 113 % of control | T/C (dose: 125.0 mg/kg/injection, schedule: Q01DX Z (ip), vehicle: saline): 108 % of control | T/C [12]: 105 % of control and 113 % of control | T/C [3]: 108 % of control | T/C [13]: 116 % of control and 118 % of control | T/C [4]: 116 % of control

O=C1CCC(N2C(=O)c3ccccc3C2=O)C(=O)N1 (stereo not drawn)
T/C (dose: 31.3 mg/kg/injection, schedule: Q01DX010 (ip), vehicle: saline): 94 % of control | T/C [15]: 96 % of control | T/C [11]: 94 % of control | T/C [12]: 100 % of control

Nc1nc(N)c2nc(CNc3ccc(C(=O)NC(CCC(=O)O)C(=O)O)cc3)cnc2n1 (stereo not drawn)
T/C (dose: 0.03 mg/kg/injection, schedule: Q01DX010 (ip), vehicle: other): 99 % of control and 109 % of control | T/C (dose: 0.05 mg/kg/injection, schedule: Q01DX010 (ip), vehicle: other): 123 % of control and 101 % of control | T/C (dose: 0.1 mg/kg/injection, schedule: Q01DX010 (ip), vehicle: other): 122 % of control and 124 % of control

NC(Cc1c[nH]c2ccc(N(CCCl)CCCl)cc12)C(=O)O (stereo not drawn)
T/C (dose: 0.5 mg/kg/injection, schedule: Q01DX010 (ip), vehicle: saline): 117 % of control | T/C (dose: 1.0 mg/kg/injection, schedule: Q01DX010 (ip), vehicle: saline): 108 % of control | T/C [9]: 120 % of control | T/C [10]: 233 % of control

O=C1C(NC(=O)C2CCCCC2)=C(N2CC2)C(=O)C(NC(=O)C2CCCCC2)=C1N1CC1
T/C (dose: 6.25 mg/kg/injection, schedule: Q01DX010 (ip), vehicle: saline): 98 % of control | T/C (dose: 12.5 mg/kg/injection, schedule: Q01DX010 (ip), vehicle: saline): 98 % of control | T/C (dose: 18.0 mg/kg/injection, schedule: Q01DX Z (ip), vehicle: carboxymethylcellulose (CMC)): 108 % of control | T/C (dose: 25.0 mg/kg/injection, schedule: Q01DX010 (ip), vehicle: saline): 93 % of control and 98 % of control | T/C [6]: 97 % of control | T/C [14]: 91 % of control | T/C (dose: 50.0 mg/kg/injection, schedule: Q01DX010 (ip), vehicle: saline): 90 % of control and 102 % of control | T/C (dose: 50.0 mg/kg/injection, schedule: Q01DX Z (ip), vehicle: carboxymethylcellulose (CMC)): 100 % of control | T/C (dose: 125.0 mg/kg/injection, schedule: Q01DX Z (ip), vehicle: carboxymethylcellulose (CMC)): 121 % of control | T/C (dose: 250.0 mg/kg/injection, schedule: Q01DX Z (ip), vehicle: carboxymethylcellulose (CMC)): 122 % of control

Source: PubChem BioAssay AID282 (DTP/NCI, 2004)
